Data taken from US12157741B2, “Macrocyclic inhibitors of DYRK1A” (DANA-FARBER CANCER INSTITUTE, INC., priority 2018, dated 2024).
Read-outs that look alike come from different tables or passages of the source.

Key:
various enzymes [1] = molecular target: various enzymes (Homo sapiens, UniProt Q13705); conditions: ACVR2B; 1 uM
Experimental: (§2) Ambit profiling from Eurofins (formerly Discoverx) was conducted in accordance with the manufacturer's instructions.

various enzymes [2] = molecular target: various enzymes (Homo sapiens, UniProt P49336); conditions: CDK8; 1 uM
Experimental: as §2

various enzymes [3] = molecular target: T1, various enzymes (Homo sapiens, UniProt Q8IVH8); conditions: MAP4K3; 1 uM
T1 sequence (Q8IVH8 1-894): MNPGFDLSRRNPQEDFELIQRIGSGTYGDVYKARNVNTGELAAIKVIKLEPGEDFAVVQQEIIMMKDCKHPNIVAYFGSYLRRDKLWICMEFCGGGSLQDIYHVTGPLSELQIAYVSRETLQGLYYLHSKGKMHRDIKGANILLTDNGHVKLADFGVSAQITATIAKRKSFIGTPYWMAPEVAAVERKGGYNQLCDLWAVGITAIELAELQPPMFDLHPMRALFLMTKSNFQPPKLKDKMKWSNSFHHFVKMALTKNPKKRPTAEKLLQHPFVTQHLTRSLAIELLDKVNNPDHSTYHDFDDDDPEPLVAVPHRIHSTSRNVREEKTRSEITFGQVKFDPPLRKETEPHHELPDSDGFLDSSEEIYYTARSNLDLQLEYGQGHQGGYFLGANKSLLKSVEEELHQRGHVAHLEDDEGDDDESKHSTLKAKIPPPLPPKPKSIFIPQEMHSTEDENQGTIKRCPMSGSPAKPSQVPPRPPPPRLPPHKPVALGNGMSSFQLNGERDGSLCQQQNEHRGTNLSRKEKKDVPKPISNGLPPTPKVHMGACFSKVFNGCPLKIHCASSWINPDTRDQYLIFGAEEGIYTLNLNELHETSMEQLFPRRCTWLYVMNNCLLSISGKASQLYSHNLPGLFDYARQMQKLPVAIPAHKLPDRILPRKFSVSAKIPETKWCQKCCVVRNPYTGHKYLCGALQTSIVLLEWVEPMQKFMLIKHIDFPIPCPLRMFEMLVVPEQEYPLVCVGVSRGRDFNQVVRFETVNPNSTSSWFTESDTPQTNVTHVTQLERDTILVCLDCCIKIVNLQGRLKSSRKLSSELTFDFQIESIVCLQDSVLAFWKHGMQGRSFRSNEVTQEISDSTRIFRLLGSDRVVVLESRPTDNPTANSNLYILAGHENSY
Experimental: as §2

various enzymes [4] = molecular target: various enzymes (Homo sapiens, UniProt P00533, DEL747-752/P753S)
Experimental: as §2

various enzymes [5] = molecular target: various enzymes (Homo sapiens, UniProt P78368); conditions: CSNK1G2; 1 uM
Experimental: as §2

various enzymes [6] = molecular target: various enzymes (Homo sapiens, UniProt P00533, DELINS747-751S); conditions: EGFR(L747-T751del, Sins); 1 uM
Experimental: as §2

various enzymes [7] = molecular target: T2, various enzymes (Homo sapiens, UniProt P45985); assay type: binding; conditions: compound 1 uM
T2 sequence (P45985 1-399): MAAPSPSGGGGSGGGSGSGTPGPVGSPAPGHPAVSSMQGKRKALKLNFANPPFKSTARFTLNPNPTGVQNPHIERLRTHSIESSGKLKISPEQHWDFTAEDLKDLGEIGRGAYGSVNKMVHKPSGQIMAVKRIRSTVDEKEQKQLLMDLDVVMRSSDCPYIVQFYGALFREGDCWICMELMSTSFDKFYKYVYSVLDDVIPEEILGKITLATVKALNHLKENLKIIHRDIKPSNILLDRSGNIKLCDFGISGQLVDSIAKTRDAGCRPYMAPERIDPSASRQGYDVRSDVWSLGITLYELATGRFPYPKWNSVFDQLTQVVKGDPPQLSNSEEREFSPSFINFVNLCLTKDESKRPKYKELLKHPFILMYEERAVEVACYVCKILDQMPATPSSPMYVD
Experimental: (§1) Ambit profiling was conducted in accordance with the manufacturer's instructions.

various enzymes [8] = molecular target: various enzymes (Homo sapiens, UniProt Q8NI60); assay type: binding; conditions: compound 1 uM
Experimental: as §1

various enzymes [9] = molecular target: various enzymes (Homo sapiens, UniProt Q16659); assay type: binding; conditions: compound 1 uM
Experimental: as §1

various enzymes [10] = molecular target: T3, various enzymes (Homo sapiens, UniProt O60285); assay type: binding; conditions: compound 1 uM
T3 sequence (O60285 1-661): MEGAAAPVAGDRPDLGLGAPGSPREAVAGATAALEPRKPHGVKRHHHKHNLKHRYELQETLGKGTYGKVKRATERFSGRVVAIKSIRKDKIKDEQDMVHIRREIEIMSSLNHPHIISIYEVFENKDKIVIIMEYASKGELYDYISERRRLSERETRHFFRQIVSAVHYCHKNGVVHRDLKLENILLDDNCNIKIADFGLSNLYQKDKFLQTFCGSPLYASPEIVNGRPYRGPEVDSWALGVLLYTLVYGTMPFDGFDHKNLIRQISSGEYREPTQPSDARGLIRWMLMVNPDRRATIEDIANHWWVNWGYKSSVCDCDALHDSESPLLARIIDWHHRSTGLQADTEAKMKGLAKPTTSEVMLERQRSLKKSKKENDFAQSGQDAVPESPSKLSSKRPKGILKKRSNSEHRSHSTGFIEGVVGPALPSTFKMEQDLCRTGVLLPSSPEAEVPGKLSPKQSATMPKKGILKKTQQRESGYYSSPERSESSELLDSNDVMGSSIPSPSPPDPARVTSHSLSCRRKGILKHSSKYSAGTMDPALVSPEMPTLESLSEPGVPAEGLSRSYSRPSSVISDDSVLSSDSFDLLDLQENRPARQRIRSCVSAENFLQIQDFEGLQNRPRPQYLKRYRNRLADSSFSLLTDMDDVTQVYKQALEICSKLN
Experimental: as §1

various enzymes [11] = molecular target: various enzymes (Homo sapiens, UniProt Q16816); assay type: binding; conditions: compound 1 uM
Experimental: as §1

various enzymes [12] = molecular target: various enzymes (Homo sapiens, UniProt P21127); assay type: binding; conditions: compound 1 uM
Experimental: as §1

various enzymes [13] = molecular target: various enzymes (Homo sapiens, UniProt P57078); assay type: binding; conditions: compound 1 uM
Experimental: as §1

various enzymes [14] = molecular target: various enzymes (Homo sapiens, UniProt Q9Y4K4); assay type: binding; conditions: compound 1 uM
Experimental: as §1

various enzymes [15] = molecular target: various enzymes (Homo sapiens, UniProt P42336, H1047L); assay type: binding
Experimental: as §1

various enzymes [16] = molecular target: various enzymes (Homo sapiens, UniProt P46734); assay type: binding; conditions: compound 1 uM
Experimental: as §1

various enzymes [17] = molecular target: various enzymes (Homo sapiens, UniProt Q13177); assay type: binding; conditions: compound 1 uM
Experimental: as §1

various enzymes (Homo sapiens, UniProt P46734), sequence (P46734 whole entry): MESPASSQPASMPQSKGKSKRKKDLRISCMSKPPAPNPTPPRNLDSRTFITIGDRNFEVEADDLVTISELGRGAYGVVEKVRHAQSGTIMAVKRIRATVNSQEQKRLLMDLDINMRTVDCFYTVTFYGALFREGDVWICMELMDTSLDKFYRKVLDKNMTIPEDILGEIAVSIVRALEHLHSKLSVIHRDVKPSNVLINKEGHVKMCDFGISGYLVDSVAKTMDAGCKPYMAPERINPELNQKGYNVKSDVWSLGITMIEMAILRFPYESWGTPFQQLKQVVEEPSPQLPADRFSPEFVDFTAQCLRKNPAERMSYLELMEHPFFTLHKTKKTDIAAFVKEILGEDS
various enzymes (Homo sapiens, UniProt Q13705), sequence (Q13705 19-512): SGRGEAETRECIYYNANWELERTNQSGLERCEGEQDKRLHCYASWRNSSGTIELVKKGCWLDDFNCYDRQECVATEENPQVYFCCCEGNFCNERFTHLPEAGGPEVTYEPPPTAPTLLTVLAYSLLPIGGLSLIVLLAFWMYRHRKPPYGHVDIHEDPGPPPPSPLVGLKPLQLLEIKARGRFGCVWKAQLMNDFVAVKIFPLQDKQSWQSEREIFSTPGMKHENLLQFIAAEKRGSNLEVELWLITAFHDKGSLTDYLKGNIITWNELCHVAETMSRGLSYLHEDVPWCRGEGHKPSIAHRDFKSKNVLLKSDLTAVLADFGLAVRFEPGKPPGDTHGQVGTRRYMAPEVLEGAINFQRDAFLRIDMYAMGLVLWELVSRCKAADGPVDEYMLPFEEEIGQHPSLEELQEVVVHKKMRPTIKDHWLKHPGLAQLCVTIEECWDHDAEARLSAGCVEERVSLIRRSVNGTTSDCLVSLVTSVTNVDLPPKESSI
various enzymes (Homo sapiens, UniProt Q8NI60), sequence (Q8NI60 163-647): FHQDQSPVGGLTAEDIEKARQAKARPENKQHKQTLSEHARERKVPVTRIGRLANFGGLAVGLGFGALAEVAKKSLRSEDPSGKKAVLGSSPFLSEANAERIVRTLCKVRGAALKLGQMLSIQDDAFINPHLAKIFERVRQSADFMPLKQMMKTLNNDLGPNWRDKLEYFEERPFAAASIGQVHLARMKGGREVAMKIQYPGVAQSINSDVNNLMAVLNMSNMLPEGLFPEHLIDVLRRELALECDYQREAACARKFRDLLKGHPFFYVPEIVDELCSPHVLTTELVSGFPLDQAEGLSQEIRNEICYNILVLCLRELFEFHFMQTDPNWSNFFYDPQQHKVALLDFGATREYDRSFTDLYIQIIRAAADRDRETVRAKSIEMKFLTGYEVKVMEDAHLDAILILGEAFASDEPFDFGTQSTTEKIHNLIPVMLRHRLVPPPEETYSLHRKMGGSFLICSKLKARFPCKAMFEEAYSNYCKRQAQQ
various enzymes (Homo sapiens, UniProt P57078), sequence (P57078 whole entry): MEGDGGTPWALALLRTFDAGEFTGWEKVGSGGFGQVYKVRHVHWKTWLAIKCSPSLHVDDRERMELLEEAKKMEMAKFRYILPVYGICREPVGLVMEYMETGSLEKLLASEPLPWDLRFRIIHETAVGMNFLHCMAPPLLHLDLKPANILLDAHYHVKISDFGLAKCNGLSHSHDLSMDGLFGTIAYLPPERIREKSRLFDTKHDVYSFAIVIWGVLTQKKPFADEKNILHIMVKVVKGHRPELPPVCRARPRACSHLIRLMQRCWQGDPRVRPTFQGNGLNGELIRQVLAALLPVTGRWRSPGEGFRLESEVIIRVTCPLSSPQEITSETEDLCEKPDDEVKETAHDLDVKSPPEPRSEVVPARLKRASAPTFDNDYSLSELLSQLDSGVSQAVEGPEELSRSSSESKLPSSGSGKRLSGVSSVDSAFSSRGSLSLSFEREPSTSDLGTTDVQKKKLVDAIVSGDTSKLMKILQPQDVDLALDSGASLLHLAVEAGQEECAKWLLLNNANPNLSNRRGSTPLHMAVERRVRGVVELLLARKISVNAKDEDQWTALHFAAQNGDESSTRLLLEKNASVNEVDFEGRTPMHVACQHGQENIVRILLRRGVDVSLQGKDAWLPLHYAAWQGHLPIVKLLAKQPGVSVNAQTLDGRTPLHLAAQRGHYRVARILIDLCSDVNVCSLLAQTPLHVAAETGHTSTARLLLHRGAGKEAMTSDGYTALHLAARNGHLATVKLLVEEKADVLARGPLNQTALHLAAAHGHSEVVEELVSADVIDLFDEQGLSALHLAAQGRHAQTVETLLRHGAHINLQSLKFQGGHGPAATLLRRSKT
various enzymes (Homo sapiens, UniProt Q16659), sequence (Q16659 whole entry): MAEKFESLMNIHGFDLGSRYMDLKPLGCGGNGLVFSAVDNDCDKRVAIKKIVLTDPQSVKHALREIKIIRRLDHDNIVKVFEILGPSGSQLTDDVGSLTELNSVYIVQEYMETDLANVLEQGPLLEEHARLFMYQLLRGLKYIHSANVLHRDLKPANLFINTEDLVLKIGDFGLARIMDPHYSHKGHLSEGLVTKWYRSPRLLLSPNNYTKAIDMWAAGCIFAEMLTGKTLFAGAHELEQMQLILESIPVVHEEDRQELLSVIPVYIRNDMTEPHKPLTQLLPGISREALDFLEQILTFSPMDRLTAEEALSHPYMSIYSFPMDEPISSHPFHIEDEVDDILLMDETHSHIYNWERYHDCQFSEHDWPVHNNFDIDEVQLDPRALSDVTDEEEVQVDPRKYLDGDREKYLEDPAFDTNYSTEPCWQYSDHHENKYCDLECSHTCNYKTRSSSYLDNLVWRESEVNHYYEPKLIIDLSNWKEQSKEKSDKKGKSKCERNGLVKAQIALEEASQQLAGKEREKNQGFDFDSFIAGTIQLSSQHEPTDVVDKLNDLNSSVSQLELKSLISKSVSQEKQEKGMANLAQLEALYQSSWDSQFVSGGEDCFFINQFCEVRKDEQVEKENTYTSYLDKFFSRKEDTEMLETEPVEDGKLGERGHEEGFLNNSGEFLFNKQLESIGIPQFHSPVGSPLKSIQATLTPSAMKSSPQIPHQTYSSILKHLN
various enzymes (Homo sapiens, UniProt Q13177), sequence (Q13177 whole entry): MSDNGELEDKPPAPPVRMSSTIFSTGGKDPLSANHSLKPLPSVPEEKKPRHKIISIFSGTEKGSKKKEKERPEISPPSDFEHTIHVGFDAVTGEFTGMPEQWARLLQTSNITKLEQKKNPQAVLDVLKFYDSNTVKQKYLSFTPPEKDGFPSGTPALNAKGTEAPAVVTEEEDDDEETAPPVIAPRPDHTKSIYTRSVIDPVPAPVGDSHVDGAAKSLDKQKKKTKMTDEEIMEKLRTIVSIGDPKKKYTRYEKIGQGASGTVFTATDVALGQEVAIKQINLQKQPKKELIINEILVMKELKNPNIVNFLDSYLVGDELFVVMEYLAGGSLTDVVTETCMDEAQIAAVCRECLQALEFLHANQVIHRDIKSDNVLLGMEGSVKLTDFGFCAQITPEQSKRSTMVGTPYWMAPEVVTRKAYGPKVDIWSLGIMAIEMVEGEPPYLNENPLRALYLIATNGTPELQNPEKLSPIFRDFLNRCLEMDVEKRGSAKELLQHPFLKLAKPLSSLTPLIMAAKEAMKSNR
various enzymes (Homo sapiens, UniProt P21127), sequence (P21127 whole entry): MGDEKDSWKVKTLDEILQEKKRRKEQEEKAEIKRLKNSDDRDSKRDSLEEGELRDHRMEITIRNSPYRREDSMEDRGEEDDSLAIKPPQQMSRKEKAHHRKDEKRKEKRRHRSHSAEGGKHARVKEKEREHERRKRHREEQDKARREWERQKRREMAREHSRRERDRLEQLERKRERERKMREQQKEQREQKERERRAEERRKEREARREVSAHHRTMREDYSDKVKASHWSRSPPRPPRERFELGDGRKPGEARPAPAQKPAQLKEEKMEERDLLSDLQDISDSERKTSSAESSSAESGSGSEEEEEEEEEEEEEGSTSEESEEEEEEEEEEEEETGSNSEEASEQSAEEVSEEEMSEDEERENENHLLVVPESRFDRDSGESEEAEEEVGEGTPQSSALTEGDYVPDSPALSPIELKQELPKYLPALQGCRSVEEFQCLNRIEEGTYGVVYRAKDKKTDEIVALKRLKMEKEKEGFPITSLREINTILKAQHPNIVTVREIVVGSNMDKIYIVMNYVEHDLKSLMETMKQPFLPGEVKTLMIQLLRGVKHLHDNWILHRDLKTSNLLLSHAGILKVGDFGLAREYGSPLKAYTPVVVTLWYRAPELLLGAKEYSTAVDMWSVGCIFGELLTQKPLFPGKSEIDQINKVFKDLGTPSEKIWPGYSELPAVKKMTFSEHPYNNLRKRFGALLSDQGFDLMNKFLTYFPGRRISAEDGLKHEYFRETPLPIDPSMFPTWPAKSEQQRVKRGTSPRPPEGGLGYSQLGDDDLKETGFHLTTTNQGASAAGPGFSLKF
various enzymes (Homo sapiens, UniProt P49336), sequence (P49336 whole entry): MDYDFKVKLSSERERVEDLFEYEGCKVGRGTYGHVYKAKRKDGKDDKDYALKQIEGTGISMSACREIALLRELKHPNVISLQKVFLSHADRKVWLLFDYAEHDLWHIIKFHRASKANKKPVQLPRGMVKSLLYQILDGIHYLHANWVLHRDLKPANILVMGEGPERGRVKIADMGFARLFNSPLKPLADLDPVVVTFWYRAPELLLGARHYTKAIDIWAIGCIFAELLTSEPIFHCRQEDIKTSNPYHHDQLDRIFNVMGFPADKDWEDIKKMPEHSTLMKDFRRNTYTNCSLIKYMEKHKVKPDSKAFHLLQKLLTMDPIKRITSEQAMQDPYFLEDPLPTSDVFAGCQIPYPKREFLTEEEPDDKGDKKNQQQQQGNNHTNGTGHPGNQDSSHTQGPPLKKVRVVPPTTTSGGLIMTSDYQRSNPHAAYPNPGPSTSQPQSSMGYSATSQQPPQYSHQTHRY

Compound | Ambit profiling (various enzymes [1]) | Ambit profiling (various enzymes [2]) | Ambit profiling (various enzymes [3]) | Ambit profiling (various enzymes [4]; EGFR(L747-S752del, P753S), 1 uM) | Ambit profiling (various enzymes [5]) | Ambit profiling (various enzymes [6]) | Ambit profiling: MEK4 (various enzymes [7]) | Ambit profiling: ADCK3 (various enzymes [8]) | Ambit profiling: ERK3 (various enzymes [9]) | Ambit profiling: ARK5 (various enzymes [10]) | Ambit profiling: PHKG1 (various enzymes [11]) | Ambit profiling: CDC2L1 (various enzymes [12]) | Ambit profiling: RIPK4 (various enzymes [13]) | Ambit profiling: MAP4K5 (various enzymes [14]) | Ambit profiling: PIK3CA(H1047L) (various enzymes [15]; compound 1 uM) | Ambit profiling: MEK3 (various enzymes [16]) | Ambit profiling: PAK2 (various enzymes [17]) | Ambit profiling (various enzymes [4]) | Ambit profiling: PIK3CA(H1047L) (various enzymes [15])
CN1Cc2nn(C)cc2-c2cnc3[nH]cc(c3c2)-c2cnn(c2)CCCC1=O [Compound 41, (Z)-31,5-dimethyl-11H,21H,31H-5-aza-2(3,5)-pyrrolo[2,3-b]pyridina-1(4,1),3(4,3)-dipyrazolacyclononaphan-6-one] | 65 | 100 | 7.8 | 100 | 100 | 100 | – | – | – | – | – | – | – | – | – | – | – | – | –
CC(C)N1Cc2nn(C)cc2-c2cnc3[nH]cc(c3c2)-c2cn(nc2C(F)(F)F)CCCC1=O [Compound 45, (Z)-5-isopropyl-31-methyl-13-(trifluoromethyl)-11H,21H,31H-5-aza-2(3,5)-pyrrolo[2,3-b]pyridina-1(4,1),3(4,3)-dipyrazolacyclononaphan-6-one] | – | – | – | – | – | – | 0.5 | 100 | 100 | 100 | 34 | 100 | 100 | 1.2 | 100 | 0 | 74 | – | –
CN1Cc2nn(C)c(C#N)c2-c2cnc3[nH]cc(c3c2)-c2cn(nc2C(F)(F)F)CCCC1=O [Compound 48, (Z)-31,5-dimethyl-6-oxo-13-(trifluoromethyl)-11H,21H,31H-5-aza-2(3,5)-pyrrolo[2,3-b]pyridina-1(4,1),3(4,3)-dipyrazolacyclononaphane-35-carbonitrile] | 98 | 100 | 77 | – | 100 | 50 | – | – | – | – | – | – | – | – | – | – | – | 74 | –
COc1c2c(nn1C)CN(C(C)C)C(=O)CCCn1cc(c(C(F)(F)F)n1)-c1c[nH]c3ncc-2cc13 [Compound 50, (Z)-5-isopropyl-35-methoxy-31-methyl-13-(trifluoromethyl)-11H,21H,31H-5-aza-2(3,5)-pyrrolo[2,3-b]pyridina-1(4,1),3(4,3)-dipyrazolacyclononaphan-6-one] | – | – | – | – | – | – | 16 | 73 | 69 | 100 | 34 | 73 | 85 | 4.1 | – | 7.1 | 100 | – | 83
